Measurements taken from patent publication US20140275257A1, “N-ACETYL CYSTEINE COMPOSITIONS IN THE TREATMENT OF SYSTEMIC LUPUS ERYTHEMATOSUS” (Foundation for the State University of New York, priority 2013, published 2014).

Key:
SLE patients [1] = assay: Tolerance and safety, double-blind placebo-controlled pilot study of NAC in SLE; format: in vivo, human
Method: 36 patients with stable disease were enrolled in a double-blind placebo-controlled treatment trial with N-acetylcysteine (NAC; FDA approval, IND No: 101,320; clinicaltrials.gov identifier: NCT00775476). SLE patients were randomized to receive either placebo (placebo group—dextrose) or NAC (test group) in one of three treatment arms of increasing doses for three months: 600 mg twice daily (Dose 1), 1,200 mg twice daily (Dose 2), or 2,400 mg twice daily (Dose 3). 12 patients were enrolled per treatment arm, 9 received NAC while 3 received placebo.
At each visit, patients were specifically asked about common side effects (nausea, bloating, bad taste) seen in prior trials These side effects were reviewed by the Data Safety and Monitoring Board (DSMB) bi-annually. Tolerance and safety were primary clinical outcomes.
All 24 patients in Dosing Group 1 (1.2 g/day NAC) and 2 (2.4 g/day NAC) completed the treatment and none of the […] in Dosing Group 1 (1.2 g/day NAC) or 2 (2.4 g/day NAC) reported unpleasant smell or taste. Three of 12 patients in Dosing Group 3 (4.8 g/day) dropped out (Table 6) due to 1) heartburn after 26 days, which resolved after discontinuing the capsules; 2) recurrent nausea and one-time vomiting after 46 days, with resolution after discontinuing the capsules; 3) headaches, which were eliminated by halving the dose to 2.4 g/day. Since all three patients reporting intolerance received NAC, in accordance with the DSMP, no higher dose was initiated. Following the last Dosing Group 3 visit, the study was un-blinded.

SLE patients [2] = assay: British Isles Lupus Assessment Group (BILAG) score in NAC pilot study; format: in vivo, human; conditions: for BILAG: all patients treated with NAC, baseline 26.2
Method: The BILAG index is more comprehensive than the SLEDAI, recording clinical disease activity in 8 different organ systems for a total of 101 items. Each item is measured qualitatively by clinical observation (yes/no, improving/same/worse/new) or quantitatively by measuring hematologic and renal lab values. […] Normally, a total score is not calculated. However, it can be converted into a disease activity scale by assigning points to the alphabetical score: A=9, B=3, C=1, D=0, E=0, with a maximum potential score of 72. (Lam, G. K. W. and Petri, M., “Assessment of systemic lupus erthematosus,” Clin. Exp. Rheumatol., 23 (Supp. 39): S120-S132 (2005)). The classical BILAG index was subsequently updated as the BILAG 2004 index. […] Development and initial validation of an updated version of the British Isles Lupus Assessment Group's disease activity index for patients with systemic lupus erythematosus,” Rheumatology, 44: 902-906 (2005). According to the BILAG 2004 index, all features must be attributable to SLE and refer to the last 4 weeks compared with the previous 4 weeks; in some manifestations, it may be difficult to differentiate SLE from other causes as there may not be any specific test and the decision would then lies with the physician's judgement on the balance of probabilities. The term “improvement” is defined as (a) the amount that is sufficient for consideration of reduction in therapy; and (b) that which is present ≧2 weeks of the previous 4 weeks. Scoring for features is indicated as: (0) not present; (1) Improving; (2) Same; (3) Worse; (4) New.
A complete physical examination of the cardiovascular, respiratory, gastrointestinal, musculoskeletal, neurological systems, skin, head, neck, sinuses, nasal and oral cavities were performed at each visit. SLE disease activity was assessed by using the British Isles Lupus Assessment Group (BILAG) (Isenberg, D. A. et al., “BILAG 2004. Development and initial validation of an updated version of the British Isles Lupus Assessment Group's disease activity index for patients with systemic lupus erythematosus,” Rheumatology 44(7): 902-906 (2005)) and SLE Disease Activity Index (SLEDAI) (Bombardier, C. et al., “Derivation of the SLEDAI. A disease activity index for lupus patients,” Arth. Rheum., 35: 630-640 (1992)). The concurrent use and dosage of prednisone and other medications were documented.
Lupus disease activity was measured by SLEDAI and BILAG and fatigue was evaluated by FAC at baseline (visit 1) as well as monthly during a 3-month intervention (visits 2-4) and after a 1-month washout period (visit 5).
Overall clinical effectiveness of NAC relative to placebo was analyzed with multilevel modeling as implemented in the STATA routine XTMIXED (from StataCorp, College Station, Tex.), with the three nested levels being drug group, subject within drug group and study visit within subject. All models included fixed effects for drug group, study visit and the drug group by study visit interaction along with random intercepts at each design level. […] The reduction in lupus disease activity SLEDAI scores was greater for the NAC than placebo group, as indicated by a significant visit by drug interaction (z=−2.14, p=0.033). The reduction in BILAG scores was also greater for NAC than placebo group. The overall effect was statistically significant as indicated by a significant visit by drug interaction (z=−2.62, p=0.009). Two tailed paired t-test was used to assess the effects of placebo and of each and all NAC doses on clinical indices and biomarkers recorded on visits 2-5 relative to visit 1; p<0.05 was considered significant. Patients and controls were compared with two-tailed unpaired t-test.

[3] = Noszal et al. (2000); cited from earlier work
[4] = test system: anti-double-stranded DNA, C3, and C4; assay: Lupus-relevant laboratory tests (anti-double-stranded DNA, C3, C4); format: in vivo, human
Source text: Routine blood tests included complete blood count, liver and kidney function test, urinalysis and lupus-relevant laboratory tests, such as anti-double-stranded DNA, C3, and C4.

CC(=O)N[C@@H](CS)C(=O)O [NAC, N-acetyl-L-cysteine]
patients reporting unpleasant smell or taste (SLE patients [1]; Dosing Group 1 (1.2 g/day NAC) or 2 (2.4 g/day NAC)): none | patients dropped out (heartburn; recurrent nausea and vomiting; headaches) (SLE patients [1]; Dosing Group 3 (4.8 g/day), all three received NAC): Three of 12 | safety and tolerance (SLE patients [1]; all SLE patients, up to 2.4 g/day): safe and tolerated | patients with reversible nausea (SLE patients [1]; patients receiving 4.8 g/day): 33% | effect on SLE disease activity, BILAG (SLE patients [2]; NAC dose 1 (1.2 g/day)): did not influence | effect on BILAG (SLE patients [2]; NAC dose 2 (2.4 g/day) and dose 3 (4.8 g/day), after 1 month (p=0.029) and 3 months (p=0.0009)): reduced | effect on BILAG (mixed model analysis) (SLE patients [2]; NAC dosing group 3 (4.8 g/day), XTMIXED z=−2.19, p=0.029): significant reduction | reduction in BILAG relative to placebo (mixed model analysis) (SLE patients [2]; NAC groups, visit by drug interaction, XTMIXED z=−2.62, p=0.009): greater | swollen joint count (BILAG component) (SLE patients [2]; after 3-month NAC treatment with dose 3, XTMIXED z=−2.0, p=0.046): reduced | swollen joint count (BILAG component) (SLE patients [2]; after 3-month NAC treatment, all doses combined, XTMIXED z=−2.2, p=0.028): reduced | BILAG (SLE patients [2]; after 1 month (visit 2), p=0.0158): 22.3 | BILAG (SLE patients [2]; after 2 months (visit 3), p=0.0223): 22.2 | half-cell potential, NAC thiol/disulfide pair [3]: about +63 mV | C3 ([4]; NAC-treated patients): not affected | C4 ([4]; NAC-treated patients): not affected | Anti-DNA ([4]; all NAC doses considered together, after 1 month, baseline 78.9±45.2 IU/ml, p=0.049): 19.5±6.0 IU/ml
